Source: US5602176A, “Phenyl carbamate” (priority 1987, dated 1997)

How the values were obtained:
[1] = system: rat hippocampal slices (indirect method for acetylcholinesterase (AChE) inhibition); experiment: Electrically evoked 3H-acetylcholine release from rat hippocampal slices; assay type: cell-based
Text: Electrically evoked ^3 H-acetylcholine release from rat hippocampal slices
Electrically evoked ^3 H-acetylcholine (^3 H-ACh) release from rat hippocampal slices is a functional in vitro model to investigate presynaptic muscarinic autoreceptor agonists and antagonists. This model can also be used as an indirect method to evaluate drugs which inhibit acetylcholinesterase (AChE). Inhibition of AChE activity leads to the accumulation of endogenous ACh which then interacts with presynaptic muscarinic autoreceptors and inhibits further release of ^3 H-ACh.
Rat hippocampal slices (Wistar strain, 180-200 g) are prepared by chopping into cross sections whole hippocampal slices at a distance of 0.3 mm with a McIlwain tissue chopper. Hippocampal slices obtained from 3 rats are incubated for 30 min. at 23° C. in 6 ml Krebs-Ringer containing 0.1 uCi ^3 H-choline and transferred into the superfusion chamber and superfused with Kreb's medium containing 10 μM hemicholinium-3 at a rate of 1.2 ml/min. at 30° C. Collection of 5 min. fractions of the superfusate begins after 60 min. of superfusion. Two periods of electrical stimulation (2 Hz rectangular pulses 2 msec, 10 mA, 2 min.) are applied after 70 min. (S1) and after 125 min. (S2) of superfusion. […] At the end of the experiments the slices are solubilized in conc. formic acid and tritium content is determined in the superfusate and the solubilized slices. Tritium outflow is expressed as the fractional rate of tritium outflow per min. Electrically evoked tritium outflow is calculated by subtraction of the extrapolated basal tritium outflow from the total tritium outflow during the two min. of electrical stimulation and the following 13 min. and is expressed as percent of the tritium content at the beginning of the sample collection. Drug effects on stimulation evoked tritium outflow are expressed as the ratios S2 /S1. All experiments are run in dublicates using a programmable 12 channel superfusion system. For the calculation a computer program is used.

[2] = system: dopamine metabolism in striatum; experiment: Influence on dopamine metabolism; assay type: in vivo, rat; conditions: following administration
Procedure: Influence on dopamine metabolism
Male OFA rats (150-200 g) were used both for acute and subchronic experiments. The animals are maintained under 12 hour periods of light and dark. The animals are sacrificed always between 11.00 and 13.00 h. The brains are excised immediately, dissected on ice according to the method of GLOWINSKI and IVERSEN, J. Neurochem. 13, 655 (1966), frozen on dry ice and the tissue samples stored at -80° C. until analysis.
Dopamine and its metabolites DOPAC (3,4-dihydroxyphenylacetic acid) and HVA (homovanillic acid) are determined in brain tissue extracts which are obtained by homogenisation of the stored brain tissue samples in 0.1N HCl containing 0.05 mM ascorbic acid and subsequent centrifugation. Striatal and cortical tissues are used.
The determination of the metabolites is performed using either the gas chromatography/mass fragmentography (GCMS) technique as described by KAROUM et al., J. Neurochem. 25, 653 (1975) and CATABENI et al., Science 178, 166 (1972) or the fluorometric method as described by […] and MAITRE, Analyt. Biochem. 51, 474 (1973). For the GCMS method, tissue extracts are prepared by adding known amounts of deuterated monoamines and their respective metabolites as internal standards.

[3] = system: levels of ACh in different regions of rat brain; experiment: Acetylcholine levels in different rat brain regions; assay type: in vivo; conditions: p.o.
Procedure: Acetylcholine levels in different rat brain regions
The animals are killed by microwave irradiation focused on the head (6 kW operating power 2450 Mhz exposure 1.7 sec., Pueschner Mikrowellen-Energietechnik, Bremen). The brains are removed dissected according to Glowinski and Iversen (1966) and stored at -70° C. until analysis. The brain parts are homogenized in 0.1M perchloric acid containing internal deuterated standards of ACh-d4 and Ch(choline)-d4. After centrifugation, endogenous ACh and Ch together with their deuterated variants are extracted with dipicrylamine (2,2',4,4',6,6'-hexanitrodiphenylamine) in dichlormethane as ion pairs. The Ch moities are derivatized with propionyl chloride and the resulting mixture of ACh and propyl choline derivatives are demethylated with sodiumbenzenethiolate and analyzed by mass-fragmentography according to Jenden et al. Anal. Biochem., 55, 438-448, (1973).

[4] = molecular target: T1, AChE preparations of different rat brain regions (Rattus norvegicus, UniProt P37136); experiment: Acetylcholinesterase inhibition in different rat brain regions (in vitro, Ellman); assay type: biochemical; conditions: table 1
T1 construct: Rat brain tissue is homogenized in cold phosphate buffer pH 7.3; from tissue; host or cells: rat brain (cortex, hippocampus, striatum), supernatant of Triton X-100 homogenate
Procedure: Acetylcholinesterase inhibition in different rat brain regions
AChE preparations of different rat brain regions (Cortex, hippocampus and striatum) are used in this test and the IC50 (inhibitory concentrations in μM) are determined. The enzyme preparations are preincubated with the inhibitor 15 minutes before the determination.
The AChE activity is measured according to the method described by Ellman (Arch. Biochem. Biophys. 82, 70, 1959). Rat brain tissue is homogenized in cold phosphate buffer pH 7.3 (0.25 mM) containing 0.1% of Triton X-100. After centrifugation aliquots of the clear supernatant is used as enzyme source. The enzyme is preincubated with different concentrations of the inhibitor. After different times, substrate (acetylthiocholinjodide 0.5 mM) is added and the remaining activity determined.

[5] = system: deoxyglucose (DOG) utilisation in the brain; experiment: Muscarinic and nicotinic effects on brain glucose utilisation (deoxyglucose autoradiography); assay type: in vivo, rat; conditions: 7.5 μmol/kg p.o.
Text: Muscarinic and nicotinic effects on brain glucose utilisation
Changes in the functional activity of the CNS are associated with altered deoxyglucose (DOG) utilisation in the brain which can be visualised simultaneously in several brain regions using the autoradiographic method of Sokoloff et al., J. Neurochem. 28, 897 (1977). The administration of cholinergic drugs either direct (muscarinic agonists) or indirect (accumulation of acetylcholine) induces in this model a characteristic "fingerprint" pattern by modifying the regional glucose metabolism.
Male Wistar rats (150-200 g) are used. Drugs are administered at various doses and by different routes (i.v., p.o., i.p.) to animals. [14C]-2-deoxyglucose (125 μC/kg) is injected 45 min. before the animals are sacrificed. The brains are immediately excised, frozen at -80° C. and subsequently cut in slices with a thickness of 20 μm. The optical densities of the radiographic images are measured according to a modification of Sokoloff et al.

[6] = In vitro skin diffusion test (penetration through the skin); assay type: in vitro ADME; conditions: rat skin
Text: The penetration through the skin of the compounds for administration according to the invention may be observed in standard in vitro or in vivo tests.
One in vitro test is the well known diffusion test which may be effected according to the principles set out in GB 2098865 A and by T. J. Franz in J. Invest. Dermatol. (1975) 64, 194-195. Solutions containing the active agent in unlabelled or radioactively labelled form are applied to one side of isolated pieces of intact human skin or hairless rat skin about 2 cm^2 in area. The other side of the skin is in contact with physiological saline. The amount of active agent in the saline is measured in conventional manner, e.g. by HPLC or spectrophotometric techniques, or by determining the radioactivity.
In this test using rat skin the following penetration rates, for example, have been found: […]

T1 sequence (P37136 32-614): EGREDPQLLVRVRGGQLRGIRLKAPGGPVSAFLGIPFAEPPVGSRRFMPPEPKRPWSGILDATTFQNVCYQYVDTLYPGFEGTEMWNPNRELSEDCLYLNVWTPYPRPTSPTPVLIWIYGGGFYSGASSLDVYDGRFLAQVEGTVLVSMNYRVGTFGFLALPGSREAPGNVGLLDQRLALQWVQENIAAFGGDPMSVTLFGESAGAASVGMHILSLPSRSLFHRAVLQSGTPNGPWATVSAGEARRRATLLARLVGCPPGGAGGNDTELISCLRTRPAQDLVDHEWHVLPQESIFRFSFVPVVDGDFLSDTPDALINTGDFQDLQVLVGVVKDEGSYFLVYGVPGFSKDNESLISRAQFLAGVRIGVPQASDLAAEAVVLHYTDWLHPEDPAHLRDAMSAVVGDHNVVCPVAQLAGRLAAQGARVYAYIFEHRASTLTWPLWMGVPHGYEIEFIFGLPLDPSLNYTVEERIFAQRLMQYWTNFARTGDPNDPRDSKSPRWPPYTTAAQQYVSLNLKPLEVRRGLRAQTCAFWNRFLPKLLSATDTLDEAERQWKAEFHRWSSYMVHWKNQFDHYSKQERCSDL

SMILES | antagonism of the inhibitory effect by atropine [1] | inhibition at 100 µM ([1]; Rattus norvegicus, 3 h, 100 μM, read-out: inhibition of electrically evoked 3H-ACh release from hippocampal slices) [%] | dopamine metabolism in striatum [2] | influence on ACh levels in rat brain, comparison [3] | activity in the evoked 3H-ACh release model [1] | AChE inhibition in vitro, comparison in words [4] | changes in DOG utilisation in various rat brain regions [5] | penetration rate [6] [%]
CCN(C)C(=O)Oc1cccc(C(C)N(C)C)c1 (racemic) [Racemate C, (±)-N-ethyl-3-[(1-dimethylamino)ethyl]-N-methyl-phenyl-carbamate] | can be antagonized by atropine | ~25 | increased | significantly weaker than that induced by compound A | – | – | – | –
CCN(C)C(=O)Oc1cccc([C@@H](C)N(C)C)c1 [Compound B, reference compound] | – | – | increased | significantly weaker than that induced by racemate C | inactive | significantly less active | significant changes in DOG utilisation | –
CCN(C)C(=O)Oc1cccc([C@H](C)N(C)C)c1 [Compound of formula I in free base form, (S)-N-ethyl-3-[(1-dimethylamino)ethyl]-N-methyl-phenyl-carbamate] | – | – | – | – | – | – | – | 28.0±8.2
